Literature values, collected in patent publication US20220313663A1, “ELTROMBOPAG DOSING REGIMEN” (NOVARTIS PHARMACEUTICALS CORPORATION, priority 2019, published 2022).

Conditions: subjects with Asian ancestry compared to the non-Asian population

- eltrombopag clearance (CL/F): lower
SMILES: CC1=NN(c2ccc(C)c(C)c2)C(=O)/C1=N\Nc1cccc(-c2cccc(C(=O)O)c2)c1O [eltrombopag]
